Measurements published in US11149018B2, “Substituted N-arylethyl-2-aminoquinoline-4-carboxamides and use thereof” (Bayer Aktiengesellschaft, priority 2017, dated 2021).

molecular target: FP receptor (Homo sapiens (Human), UniProt P43088); experiment: In vitro test of inhibition of human FP receptor activity (PGF2α-induced calcium flux in FP-expressing CHEM1 cells); format: cell-based; settings: PGF2α 2 nM, some mean values of multiple determinations
Procedure, shortened: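 FP antagonism in FP-expressing CHEM1 cells loaded with Fluo-8. Compound preincubated 10 min at 37° C, then receptor stimulated with 2 nM (final) PGF2α in calcium-free Tyrode with 2 mM CaCl2.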

Chain of FP receptor (P43088 whole entry): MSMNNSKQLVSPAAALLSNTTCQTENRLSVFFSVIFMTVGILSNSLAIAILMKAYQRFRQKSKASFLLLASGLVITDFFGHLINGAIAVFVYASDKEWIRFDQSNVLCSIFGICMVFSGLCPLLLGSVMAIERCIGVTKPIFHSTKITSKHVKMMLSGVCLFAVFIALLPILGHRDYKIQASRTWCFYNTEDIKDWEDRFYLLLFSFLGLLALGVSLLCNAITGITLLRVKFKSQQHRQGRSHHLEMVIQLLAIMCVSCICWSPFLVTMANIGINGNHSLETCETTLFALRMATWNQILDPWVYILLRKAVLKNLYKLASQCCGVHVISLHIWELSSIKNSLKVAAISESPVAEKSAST

| Compound | IC50 [nM] |
| --- | --- |
| [2H]C1([2H])N(c2nc3ccc(Br)cc3c(C(=O)NCC(CCC(=O)O)c3c(F)ccc(F)c3Cl)c2C)C([2H])([2H])C([2H])([2H])C1([2H])[2H] (single isomer, unassigned; (+)) [Example 281, (+)-5-[({6-Bromo-3-methyl-2-[(^2H8)pyrrolidin-1-yl]quinolin-4-yl}carbonyl)amino]-4-(2-chloro-3,6-difluorophenyl)pentanoic acid] | 80 |
| CCC1CCCN(c2nc3ccc(Br)cc3c(C(=O)NCC(CCC(=O)O)c3ccccc3C(F)(F)F)c2C)C1 (single isomer, unassigned) [Example 195, 5-[({6-Bromo-2-[3-ethylpiperidin-1-yl]-3-methylquinolin-4-yl}carbonyl)amino]-4-[2-(trifluoromethyl)phenyl]pentanoic acid] | 77 |
| Cc1c(N2CCCC(C)C2)nc2ccc(Br)cc2c1C(=O)NCC(CCC(=O)O)c1ccccc1C(F)(F)F (single isomer, unassigned; (+)) [Example 198, (+)-5-[({6-Bromo-3-methyl-2-[3-methylpiperidin-1-yl]quinolin-4-yl}carbonyl)amino]-4-[2-(trifluoromethyl)phenyl]pentanoic acid] | 3.7 |
| COc1ccccc1C(CCC(=O)O)CNC(=O)c1c(C)c(N2CCCC(F)(F)C2)nc2ccc(Br)cc12 (single isomer, unassigned; (+)) [Example 289, (+)-5-({[6-Bromo-2-(3,3-difluoropiperidin-1-yl)-3-methylquinolin-4-yl]carbonyl}amino)-4-(2-methoxyphenyl)pentanoic acid] | 2.4 |
| Cc1c(N2CCCCC2)nc2ccc(Br)cc2c1C(=O)NCC(CCC(=O)O)c1c(Cl)cccc1Cl (racemic) [Example 241, (+/−)-5-({[6-Bromo-3-methyl-2-(piperidin-1-yl)quinolin-4-yl]carbonyl}amino)-4-(2,6-dichlorophenyl)pentanoic acid] | 12 |
| Cc1c(NCCC(F)(F)F)nc2ccc(Br)cc2c1C(=O)NCC(CCC(=O)O)c1ccccc1Cl (racemic) [Example 98, (+/−)-5-[({6-Bromo-3-methyl-2-[(3,3,3-trifluoropropyl)amino]quinolin-4-yl}carbonyl)amino]-4-(2-chlorophenyl)pentanoic acid] | 530 |
| Cc1c(N2CCCC2)nc2ccc(Br)cc2c1C(=O)NCC(CCC(=O)O)c1ccccc1C(F)(F)F (racemic) [Example 114, (+/−)-5-({[6-Bromo-3-methyl-2-(pyrrolidin-1-yl)quinolin-4-yl]carbonyl}amino)-4-[2-(trifluoromethyl)phenyl]pentanoic acid] | 14 |
| Cc1c(N2CC(F)C(F)C2)nc2ccc(Br)cc2c1C(=O)NCC(CCC(=O)O)c1ccccc1Cl (stereo not drawn) [Example 69, 5-[({6-Bromo-2-[trans-3,4-difluoropyrrolidin-1-yl]-3-methylquinolin-4-yl}carbonyl)amino]-4-(2-chlorophenyl)pentanoic acid] | 42 |
| Cc1c(N2CCSCC2)nc2ccc(Br)cc2c1C(=O)NCC(CCC(=O)O)c1cc(F)ccc1Cl (racemic) [Example 11, (+/−)-5-({[6-Bromo-3-methyl-2-(thiomorpholin-4-yl)quinolin-4-yl]carbonyl}amino)-4-(2-chloro-5-fluorophenyl)pentanoic acid] | 25 |
| Cc1c(N2CNC(=O)C2)nc2ccc(Br)cc2c1C(=O)NCC(CCC(=O)O)c1ccccc1Cl (racemic) [Example 88, (+/−)-5-({[6-Bromo-3-methyl-2-(4-oxoimidazolidin-1-yl)quinolin-4-yl]carbonyl}amino)-4-(2-chlorophenyl)pentanoic acid] | 880 |
| Cc1ccccc1C(CCC(=O)O)CNC(=O)c1c(C)c(N2CCCC2)nc2ccc(Br)cc12 (racemic) [Example 232, (+/−)-5-({[6-Bromo-3-methyl-2-(pyrrolidin-1-yl)quinolin-4-yl]carbonyl}amino)-4-(2-methylphenyl)pentanoic acid] | 18 |
| Cc1c(N2CCCC(F)C2)nc2ccc(Br)cc2c1C(=O)NCC(CCC(=O)O)c1ccccc1OC(F)(F)F (single isomer, unassigned; (+)) [Example 203, (+)-5-[({6-Bromo-2-[3-fluoropiperidin-1-yl]-3-methylquinolin-4-yl}carbonyl)amino]-4-[2-(trifluoromethoxy)phenyl]pentanoic acid] | 11 |
| Cc1c(N2CCCC(CO)C2)nc2ccc(Br)cc2c1C(=O)NCC(CCC(=O)O)c1cc(F)ccc1Cl (stereo not drawn) [Example 21, 5-[({6-Bromo-2-[3-(hydroxymethyl)piperidin-1-yl]-3-methylquinolin-4-yl}carbonyl)amino]-4-(2-chloro-5-fluorophenyl)pentanoic acid] | 230 |
| Cc1c(N2CCCC(C(F)(F)F)C2)nc2ccc(Br)cc2c1C(=O)NCC(CCC(=O)O)c1ccccc1Cl (stereo not drawn) [Example 53, 5-[({6-Bromo-3-methyl-2-[3-(trifluoromethyl)piperidin-1-yl]quinolin-4-yl}carbonyl)amino]-4-(2-chlorophenyl)pentanoic acid] | 5.7 |
| Cc1c(N2CCCCC2)nc2ccc(Br)cc2c1C(=O)NCC(CCC(=O)O)c1cccc(F)c1Cl (racemic) [Example 141, (+/−)-5-({[6-Bromo-3-methyl-2-(piperidin-1-yl)quinolin-4-yl]carbonyl}amino)-4-(2-chloro-3-fluorophenyl)pentanoic acid] | 5.8 |
| Cc1c(N2CCCC(C)C2)nc2ccc(Br)cc2c1C(=O)NCC(CCC(=O)O)c1ccccc1Cl (single isomer, unassigned; (-)) [Example 46, (−)-5-[({6-Bromo-3-methyl-2-[3-methylpiperidin-1-yl]quinolin-4-yl}carbonyl)amino]-4-(2-chlorophenyl)pentanoic acid] | 1.3 |
| Cc1c(N2CCCC(F)C2)nc2ccc(Br)cc2c1C(=O)NCC(CCC(=O)O)c1c(Cl)ccc(Cl)c1Cl (stereo not drawn) [Example 180, 5-[({6-Bromo-2-[3-fluoropiperidin-1-yl]-3-methylquinolin-4-yl}carbonyl)amino]-4-(2,3,6-trichlorophenyl)pentanoic acid] | 14 |
| CCC1CCCN(c2nc3ccc(Br)cc3c(C(=O)NCC(CCC(=O)O)c3ccccc3Cl)c2C)C1 (single isomer, unassigned; (-)) [Example 60, (−)-5-[({6-Bromo-2-[3-ethylpiperidin-1-yl]-3-methylquinolin-4-yl}carbonyl)amino]-4-(2-chlorophenyl)pentanoic acid] | 7.5 |
| Cc1c(N2CC[C@@H](F)C2)nc2ccc(Br)cc2c1C(=O)NCC(CCC(=O)O)c1ccccc1Cl (single isomer, unassigned; (+)) [Example 68] | 14 |
| COCCNc1nc2ccc(Br)cc2c(C(=O)NCC(CCC(=O)O)c2ccccc2Cl)c1C (racemic) [Example 104, (+/−)-5-[({6-Bromo-2-[(2-methoxyethyl)amino]-3-methylquinolin-4-yl}carbonyl)amino]-4-(2-chlorophenyl)pentanoic acid] | 410 |
| Cc1c(N2CC=CCC2)nc2ccc(Br)cc2c1C(=O)NCC(CCC(=O)O)c1cc(F)ccc1Cl (racemic) [Example 10, (+/−)-5-({[6-Bromo-2-(3,6-dihydropyridin-1(2H)-yl)-3-methylquinolin-4-yl]carbonyl}amino)-4-(2-chloro-5-fluorophenyl)pentanoic acid] | 36 |
| Cc1c(N2CCCO2)nc2ccc(Br)cc2c1C(=O)NCC(CCC(=O)O)c1cc(F)ccc1Cl (racemic) [Example 14, (+/−)-5-({[6-Bromo-3-methyl-2-(1,2-oxazolidin-2-yl)quinolin-4-yl]carbonyl}amino)-4-(2-chloro-5-fluorophenyl)pentanoic acid] | 70 |
| (−)-5-[({6-Bromo-3-methyl-2-[(^2H10)piperidin-1-yl]quinolin-4-yl}carbonyl)amino]-4-[2-(trifluoromethoxy)phenyl]pentanoic acid [Example 272] | 0.85 |
| Cc1c(N2CCCCC2)nc2ccc(Br)cc2c1C(=O)NCC(CC(=O)O)c1c(F)cccc1Cl (racemic) [Example 1, (+/−)-4-({[6-Bromo-3-methyl-2-(piperidin-1-yl)quinolin-4-yl]carbonyl}amino)-3-(2-chloro-6-fluorophenyl)butanoic acid] | 26 |
| Cc1ccccc1C(CCC(=O)O)CNC(=O)c1c(C)c(N2CCCCC2)nc2ccc(Br)cc12 (racemic) [Example 242, (+/−)-5-({[6-Bromo-3-methyl-2-(piperidin-1-yl)quinolin-4-yl]carbonyl}amino)-4-(2-methylphenyl)pentanoic acid] | 7.1 |
| Cc1c(N2CCCC(F)(F)C2)nc2ccc(Br)cc2c1C(=O)NCC(CCC(=O)O)c1c(F)cccc1C(F)(F)F (single isomer, unassigned; (+)) [Example 168, (+)-5-({[6-Bromo-2-(3,3-difluoropiperidin-1-yl)-3-methylquinolin-4-yl]carbonyl}amino)-4-[2-fluoro-6-(trifluoromethyl)phenyl]pentanoic acid] | 90 |
| Cc1c(N2CCCC(C)C2)nc2ccc(Br)cc2c1C(=O)NCC(CCC(=O)O)c1c(F)ccc(F)c1Cl (stereo not drawn) [Example 157, 5-[({6-Bromo-3-methyl-2-[3-methylpiperidin-1-yl]quinolin-4-yl}carbonyl)amino]-4-(2-chloro-3,6-difluorophenyl)pentanoic acid] | 1.7 |
| Cc1c(N2CCC(C)C2)nc2ccc(Br)cc2c1C(=O)NCC(CCC(=O)O)c1ccccc1Cl (stereo not drawn) [Example 36, 5-[({6-Bromo-3-methyl-2-[3-methylpyrrolidin-1-yl]quinolin-4-yl}carbonyl)amino]-4-(2-chlorophenyl)pentanoic acid] | 22 |
| Cc1c(N2C[C@@H](F)[C@@H](F)C2)nc2ccc(Br)cc2c1C(=O)NCC(CCC(=O)O)c1ccccc1Cl (mixture of isomers) [Example 70, (+/−)-5-[({6-Bromo-2-[cis-3,4-difluoropyrrolidin-1-yl]-3-methylquinolin-4-yl}carbonyl)amino]-4-(2-chlorophenyl)pentanoic acid] | 16 |
| Cc1c(N2CCCCC2)nc2ccc(Br)cc2c1C(=O)NCC(CCC(=O)O)c1ccccc1C(F)(F)F (racemic) [Example 111, (+/−)-5-({[6-Bromo-3-methyl-2-(piperidin-1-yl)quinolin-4-yl]carbonyl}amino)-4-[2-(trifluoromethyl)phenyl]pentanoic acid] | 6.4 |
